Reference: patent US20070261453A1, “Plant Nutrient Based on O,P-Ethylene(Bis)Hydroxyphenyl Glycines” (priority 2004, published 2007)

Tested on: Soybean (cv.Oshumi) plants
Assay: Soybean iron chlorosis experiment in aerated nutrient solution with Fe chelate treatments (plant weight, iron content, SPAD index)
Assay type: in vivo
Conditions: for Iron content in parts of the plants: leaf / Iron content in parts of the plants: per number of leaves / Iron content in parts of the plants: root: dry digestion and atomic absorption, sampled after 14 days; for Iron content in parts of the plants: leaf / Iron content in parts of the plants: per number of leaves / Iron content in parts of the plants: root / Dry leaf weight / Dry root weight / Fresh leaf weight / Fresh plant weight / Fresh root weight: mean of 4 replicates; for Dry leaf weight / Dry root weight / Fresh leaf weight / Fresh plant weight / Fresh root weight: iron-chlorotic soybean plants, sampled 14 days after start of Fe treatment; for Spad index (second leaf): Minolta SPAD 502, means of 4 replicates
Procedure: Soybean (cv.Oshumi) plants have been used in the biological experiment. Plants were obtained from soybean seeds that were germinated in standard seed growing procedure in closed sterilized trays. The seeds were placed in the trays on a cellulose paper soaked with 50 milliliters of distilled water and with another paper placed over them. 30 ml distilled water and 20 ml CaSO4 1 mM were added. The trays were placed in a thermostatized stove, without light, at […] for 3 days. After this time the seedlings of similar development were placed on a holed plate floating over containers full of diluted nutrient solution and EDTA for 7 days. Nutrient solutions (without iron) were a mixture of: macronutrients: 1 mM Ca(NO3)2·4H2O, 0.9 mM KNO3, 0.3 mM MgSO4, 0.1 mM KH2PO4; cationic micronutrients: 2.5 μM MnSO4, 1 μM CuSO4, 10 μM ZnSO4, 1 μM NiCl2, 1 μM CoSO4, 115.5 μM EDTANa2 (100 μM in excess to buffer micronutrients activities), 231 μM KOH; anionic micronutrients: 35 μM NaCl, 10 μM H3BO3, 0.05 μM Na2MoO4. The pH was buffered at 7.5 with 0.1 mM HEPES (N-2-Hydroxyethylpiperazine-N′-2-ethanesulfonic acid), 0.05mM KOH and 2 g of CaCO3 per pot. Later, plants were subjected to a stressing procedure that consisted in putting them in five pails that contained 10 | each one of nutrient solution without iron chelate. […] After 6 days, the stems of two plants were wrapped together with foam and placed in 2 | polyethylene vessels (3 holes per lid, 2 plants per pot). The pots were completely covered with black plastic to avoid the incidence of the light. The vessels contained 2 | of continuously aerated nutrient solution containing the Fe treatments. Nutrient solution consisted of macronutrients and anionic micronutrients as before and cationic micronutrients: MnSO4 (1 μM), CuSO4 (0.5 μM), ZnSO4 (0.5 μM), NiCl2 (0.1 μM) and CoSO4 (0.1 μM). Water was added every two days and the solution was renewed every week. Plants were sampled 14 days after. Roots and leaves were separated and washed first with Tween® 80 (polyoxyethylene sorbitan monooleate) in 0.1 M HCl for 30 seconds, and then with abundant distilled water, after that they were weighted and dried. Micronutrientes were determined in leaves and in roots after dry digestion procedure and atomic absorption. During the experiment SPAD readings were frequently taken using the Minolta SPAD 502 chlorophyll meter, for all the leaves.
Seven different treatments were applied: • Comparative Example 1: No iron added. • Comparative Example 2: Fe-o,o-EDDHA 5 μM • Comparative Example 3: Fe-o,o-EDDHA 5 μM+Fe-o,p-EDDHA 1 μM. • Comparative Example 4: Fe-o,o-EDDHA 5 μM+Fe-o,p-EDDHA 2.5 μM. • Comparative Example 5: Fe-o,o-EDDHA 10 μM • Example 1: Fe-o,p-EDDHA 5 μM. • Example 2: Fe-o,o-EDDHA 5 μM+Fe-o,p-EDDHA 5 μM.
Four replications were prepared for each treatment.

[1] = listed as Comparative Example 2

SMILES: O=C([O-])C(NCCNC(C(=O)[O-])c1ccccc1[O-])c1ccccc1[O-].[Fe+3] (single isomer, unassigned) [Comp. Example 2, Fe-o,o-EDDHA]
- Iron content in parts of the plants: leaf [1]: 62.30 μg Fe/g dry leave
- Iron content in parts of the plants: per number of leaves [1]: 19.82 μg Fe/number of leaves
- Iron content in parts of the plants: root [1]: 90.32 μg Fe/g dry root
- Dry leaf weight: 0.321 g
- Dry root weight: 0.282 g
- Fresh leaf weight: 1.257 g
- Fresh plant weight: 6.781 g
- Fresh root weight: 3.818 g
- Spad index (second leaf) (time 0 days, listed as C2): 12.7
- Spad index (second leaf) (time 2 days, listed as C2): 10.1
- Spad index (second leaf) (time 4 days, listed as C2): 9.1
- Spad index (second leaf) (time 7 days, listed as C2): 9.5
- Spad index (second leaf) (time 9 days, listed as C2): 9.2
- Spad index (second leaf) (time 11 days, listed as C2): 8.2

SMILES: O=C([O-])C(NCCNC(C(=O)[O-])c1ccccc1[O-])c1ccccc1[O-].[Fe+3] (single isomer, unassigned) [Comp. Example 5, Fe-o,o-EDDHA]
- Iron content in parts of the plants: leaf: 74.87 μg Fe/g dry leave
- Iron content in parts of the plants: per number of leaves: 55.15 μg Fe/number of leaves
- Iron content in parts of the plants: root: 77.22 μg Fe/g dry root
- Dry leaf weight: 0.781 g
- Dry root weight: 0.425 g
- Fresh leaf weight: 4.736 g
- Fresh plant weight: 15.862 g
- Fresh root weight: 7.316 g
- Spad index (second leaf) (time 0 days): 16.6
- Spad index (second leaf) (time 2 days): 15.7
- Spad index (second leaf) (time 4 days): 15.0
- Spad index (second leaf) (time 7 days): 18.2
- Spad index (second leaf) (time 9 days): 19.7
- Spad index (second leaf) (time 11 days): 19.0

SMILES: O=C([O-])C(NCCNC(C(=O)[O-])c1ccccc1[O-])c1ccc(O)cc1.[Fe+3] (stereo not drawn) [Example 1, Fe-o,p-EDDHA]
- Course of SPAD values compared with Comparative Examples (in words) (Example 1 vs Comparative Examples 1 to 3, Example 2 vs Comparative Examples 4 and 5): raise considerably steeper
- Weight of the plants compared with Comparative Examples (in words) (Example 1 vs Comparative Examples 1 to 3, Example 2 vs Comparative Examples 4 and 5, Table 3): considerable raise of weight of the plants
- Iron content in parts of the plants compared with Comparative Examples (in words) (Example 1 vs Comparative Examples 1 to 3, Example 2 vs Comparative Examples 4 and 5, Table 4): increase in the iron content
- Iron content in parts of the plants: leaf: 80.98 μg Fe/g dry leave
- Iron content in parts of the plants: per number of leaves: 91.91 μg Fe/number of leaves
- Iron content in parts of the plants: root: 128.48 μg Fe/g dry root
- Dry leaf weight: 1.136 g
- Dry root weight: 0.595 g
- Fresh leaf weight: 6.282 g
- Fresh plant weight: 21.186 g
- Fresh root weight: 8.933 g
- Spad index (second leaf) (time 0 days): 14.7
- Spad index (second leaf) (time 2 days): 14.0
- Spad index (second leaf) (time 4 days): 18.0
- Spad index (second leaf) (time 7 days): 21.4
- Spad index (second leaf) (time 9 days): 13.9
- Spad index (second leaf) (time 11 days): 24.9
